IC50 data for twelve molecules are collected here from patent US8846698B2, “Pyrrolo[2,3-d]pyrimidine tropomysin-related kinase inhibitors” (Pfizer Limited, priority 2011, dated 2014).

The structures appear in SMILES notation.

Chain of TRKA (P04629 441-796): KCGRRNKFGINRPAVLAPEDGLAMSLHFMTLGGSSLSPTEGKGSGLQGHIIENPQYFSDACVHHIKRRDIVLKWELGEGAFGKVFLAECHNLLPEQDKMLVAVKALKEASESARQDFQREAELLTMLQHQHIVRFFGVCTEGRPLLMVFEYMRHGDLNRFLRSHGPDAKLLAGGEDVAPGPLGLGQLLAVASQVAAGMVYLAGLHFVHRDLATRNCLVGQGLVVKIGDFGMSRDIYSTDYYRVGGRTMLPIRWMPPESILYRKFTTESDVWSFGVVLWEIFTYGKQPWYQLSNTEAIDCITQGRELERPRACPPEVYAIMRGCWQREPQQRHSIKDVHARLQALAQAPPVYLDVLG

The experiment concerns the target TRKA (Homo sapiens (Human), UniProt P04629). The experiment can be described thus: Isolated TRK enzyme assay (HTRF KinEASE-TK), TRKA. The class given is biochemical. The note with it: read-out: Trka enzyme (IC50).
One may read the IC50 as the concentration at which inhibition is half-maximal. In the case of `CC(C)n1cc(C(=O)c2cncc(NC(=O)c3cc4cnccc4o3)c2)c2cncnc21` [Example 453, Furo[3,2-c]pyridine-2-carboxylic acid [5-(7-isopropyl-7H-pyrrolo[2,3-d]pyrimidine-5-carbonyl)-pyridin-3-yl]-amide], the half-inhibitory concentration (IC50) amounted to 634 nM.

Consider `CC(C)n1cc(C(=O)c2cncc(NC(=O)c3cc4cnccc4[nH]3)c2)c2cncnc21` [Example 454, 1H-Pyrrolo[3,2-c]pyridine-2-carboxylic acid [5-(7-isopropyl-7H-pyrrolo[2,3-d]pyrimidine-5-carbonyl)-pyridin-3-yl]-amide], for which the 50% inhibitory concentration (IC50) worked out at 633 nM.

Consider `CC(C)n1cc(C(=O)c2cncc(NC(=O)c3cc4occc4cn3)c2)c2cncnc21` [Example 455, Furo[3,2-c]pyridine-6-carboxylic acid [5-(7-isopropyl-7H-pyrrolo[2,3-d]pyrimidine-5-carbonyl)-pyridin-3-yl]-amide], for which the IC50 turned out to be 1070 nM.

Regarding `Cc1nc(C)c(C(=O)Nc2cncc(C(=O)c3cn(C(C)C)c4ncncc34)c2)o1` [Example 456, 2,4-Dimethyl-oxazole-5-carboxylic acid [5-(7-isopropyl-7H-pyrrolo[2,3-d]pyrimidine-5-carbonyl)-pyridin-3-yl]-amide], the concentration for half-maximal inhibition (IC50) amounted to 6960 nM.

`CC(C)n1cc(C(=O)c2cncc(NC(=O)c3cn(C)c4cnccc34)c2)c2cncnc21` [Example 457, 1-Methyl-1H-pyrrolo[2,3-c]pyridine-3-carboxylic acid [5-(7-isopropyl-7H-pyrrolo[2,3-d]pyrimidine-5-carbonyl)-pyridin-3-yl]-amide]: the half-maximal inhibitory concentration (IC50) came out at 674 nM.

With `CC(C)n1cc(C(=O)c2cncc(NC(=O)c3cc4n(n3)CCC4)c2)c2cncnc21` [Example 458, 5,6-Dihydro-4H-pyrrolo[1,2-b]pyrazole-2-carboxylic acid [5-(7-isopropyl-7H-pyrrolo[2,3-d]pyrimidine-5-carbonyl)-pyridin-3-yl]-amide], the half-maximal inhibitory concentration (IC50) came to 213 nM.

Regarding `CC(C)n1cc(C(=O)c2cncc(NC(=O)c3csc(C4CCC4)n3)c2)c2cncnc21` [Example 459, 2-Cyclobutyl-thiazole-4-carboxylic acid [5-(7-isopropyl-7H-pyrrolo[2,3-d]pyrimidine-5-carbonyl)-pyridin-3-yl]-amide], the IC50 was determined as 4.06 nM.

As for `CC(C)n1cc(C(=O)c2cncc(NC(=O)c3ccncc3F)c2)c2cncnc21` [Example 460, 3-Fluoro-N-[5-(7-isopropyl-7H-pyrrolo[2,3-d]pyrimidine-5-carbonyl)-pyridin-3-yl]-isonicotinamide], the IC50 came to 9800 nM.

Regarding `Cc1nc2ncccn2c1C(=O)Nc1cncc(C(=O)c2cn(C(C)C)c3ncncc23)c1` [Example 461, 2-Methyl-imidazo[1,2-a]pyrimidine-3-carboxylic acid [5-(7-isopropyl-7H-pyrrolo[2,3-d]pyrimidine-5-carbonyl)-pyridin-3-yl]-amide], the IC50 was determined as 9800 nM.

For `Cc1cc(C(=O)Nc2cncc(C(=O)c3cn(C(C)C)c4ncncc34)c2)no1` [Example 462, 5-Methyl-isoxazole-3-carboxylic acid [5-(7-isopropyl-7H-pyrrolo[2,3-d]pyrimidine-5-carbonyl)-pyridin-3-yl]-amide], the IC50 was found to be 1320 nM.

With `COc1cc(OC)nc(C(=O)Nc2cncc(C(=O)c3cn(C(C)C)c4ncncc34)c2)n1` [Example 463, 4,6-Dimethoxy-pyrimidine-2-carboxylic acid [5-(7-isopropyl-7H-pyrrolo[2,3-d]pyrimidine-5-carbonyl)-pyridin-3-yl]-amide], the 50% inhibitory concentration (IC50) came out at 186 nM.

For `Cc1cncc(C(=O)Nc2cncc(C(=O)c3cn(C(C)C)c4ncncc34)c2)n1` [Example 464, 6-Methyl-pyrazine-2-carboxylic acid[5-(7-isopropyl-7H-pyrrolo[2,3-d]pyrimidine-5-carbonyl)-pyridin-3-yl]-amide], the IC50 came to 3010 nM.
